According to patent publication US9783573B2, “IAP antagonists” (BRISTOL-MYERS SQUIBB COMPANY, priority 2012, dated 2017):

Target: N-His-Tb-BIR3 (241-356, XIAP) (Homo sapiens (Human), UniProt P98170)
Assay: biochemical
Assay type: binding
Conditions: not given

| SMILES | IC50 [nM] |
| --- | --- |
| CN[C@@H](C)C(=O)N[C@H](C(=O)N1Cc2cc(NC(=O)c3ccc(C(=O)N[C@H]4C[C@@H](C(=O)N[C@@H]5CCCc6ccccc65)N(C(=O)[C@@H](NC(=O)[C@@H](NC)C(C)C)C(C)(C)C)C4)cc3)ccc2C[C@H]1C(=O)N[C@@H]1CCCc2ccccc21)C(C)(C)C [Example 36, N^1-((S)-2-((S)-3,3-dimethyl-2-((S)-2-(methylamino)propanamido)butanoyl)-3-(((R)-1,2,3,4-tetrahydronaphthalen-1-yl)carbamoyl)-1,2,3,4-tetrahydroisoquinolin-7-yl)-N^4-((3S,5S)-1-((S)-3,3-dimethyl-2-((S)-3-methyl-2-(methylamino)butanamido)butanoyl)-5-(((R)-1,2,3,4-tetrahydronaphthalen-1-yl)carbamoyl)pyrrolidin-3-yl)terephthalamide] | 190 |

Same assay, conditions: fluoresceinated modified SMAC peptide, fluorescence polarization; read-out: XIAP BIR3 FPA IC50

| SMILES | IC50 [nM] |
| --- | --- |
| CCN[C@@H](C)C(=O)N[C@H](C(=O)N1Cc2cc(NC(=O)c3ccc(C(=O)N[C@H]4C[C@@H](C(=O)N[C@@H]5CCCc6ccccc65)N(C(=O)[C@@H](NC(=O)[C@H](C)NC)C(C)(C)C)C4)cc3)ccc2C[C@H]1C(=O)N[C@@H]1CCCc2ccccc21)C(C)(C)C [Example 34, N^1-((3S,5S)-1-((S)-3,3-dimethyl-2-((S)-2-(methylamino)propanamido)butanoyl)-5-(((R)-1,2,3,4-tetrahydronaphthalen-1-yl)carbamoyl)pyrrolidin-3-yl)-N^4-((S)-2-((S)-2-((S)-2-(ethylamino)propanamido)-3,3-dimethylbutanoyl)-3-(((R)-1,2,3,4-tetrahydronaphthalen-1-yl)carbamoyl)-1,2,3,4-tetrahydroisoquinolin-7-yl)terephthalamide] | 150 |
| CN[C@@H](C)C(=O)N[C@H](C(=O)N1C[C@@H](NC(=O)c2ccc(C(=O)Nc3ccc4c(c3)CN(C(=O)[C@@H](NC(=O)[C@@H](NC)C(C)C)C(C)(C)C)[C@H](C(=O)N[C@@H]3CCCc5ccccc53)C4)cc2)C[C@H]1C(=O)N[C@@H]1CCCc2ccccc21)C(C)(C)C [Example 35] | 200 |
| CN[C@@H](C)C(=O)N[C@H](C(=O)[C@@H]1C[C@H](NC(=O)[C@@H](CCC(F)(F)F)[C@@H](CCC(F)(F)F)C(=O)Nc2ccc3c(c2)CN(C(=O)[C@@H](NC(=O)[C@H](C)NC)C(C)(C)C)[C@H](C(=O)N[C@@H]2CCCc4ccccc42)C3)CN1C(=O)N[C@@H]1CCCc2ccccc21)C(C)(C)C [Example 37, (2S,3R)-N^1-((3S,5S)-5-((S)-3,3-dimethyl-2-((S)-2-(methylamino)propanamido)butanoyl)-1-(((R)-1,2,3,4-tetrahydronaphthalen-1-yl)carbamoyl)pyrrolidin-3-yl)-N^4-((S)-2-((S)-3,3-dimethyl-2-((S)-2-(methylamino)propanamido)butanoyl)-3-(((R)-1,2,3,4-tetrahydronaphthalen-1-yl)carbamoyl)-1,2,3,4-tetrahydroisoquinolin-7-yl)-2,3-bis(3,3,3-trifluoropropyl) succinamide] | 110 |
| CCN[C@@H](C)C(=O)N[C@H](C(=O)N[C@H](C(=O)N1Cc2cc(OCc3ccc(C(=O)N[C@H]4C[C@@H](C(=O)N[C@@H]5CCCc6ccccc65)N(C(=O)[C@@H](NC(=O)[C@H](C)NC)C(C)(C)C)C4)cc3)ccc2C[C@H]1C(=O)N[C@@H]1CCCc2ccccc21)C(C)(C)C)C(C)(C)C [Example 40, (S)-7-((4-(((3S,5S)-1-((S)-3,3-Dimethyl-2-((S)-2-(methylamino)propanamido)butanoyl)-5-(((R)-1,2,3,4-tetrahydronaphthalen-1-yl)carbamoyl)pyrrolidin-3-yl)carbamoyl)benzyl)oxy)-2-((S)-2-((S)-2-((S)-2-(ethylamino)propanamido)-3,3-dimethylbutanamido)-3,3-dimethylbutanoyl)-N-((R)-1,2,3,4-tetrahydronaphthalen-1-yl)-1,2,3,4-tetrahydroisoquinoline-3-carboxamide] | 660 |
| CN[C@@H](C)C(=O)N[C@H](C(=O)N1Cc2ccc(OCc3ccc(C(=O)N[C@H]4C[C@@H](C(=O)N[C@@H]5CCCc6ccccc65)N(C(=O)[C@@H](NC(=O)[C@H](C)NC)C(C)(C)C)C4)cc3)cc2C[C@H]1C(=O)N[C@@H]1CCCc2ccccc21)C(C)(C)C [Example 41, (S)-2-((S)-3,3-Dimethyl-2-((S)-2-(methylamino)propanamido)butanoyl)-6-((4-(((3S,5S)-1-((S)-3,3-dimethyl-2-((S)-2-(methylamino)propanamido)butanoyl)-5-(((R)-1,2,3,4-tetrahydronaphthalen-1-yl)carbamoyl)pyrrolidin-3-yl)carbamoyl)benzyl)oxy)-N-((R)-1,2,3,4-tetrahydronaphthalen-1-yl)-1,2,3,4-tetrahydroisoquinoline-3-carboxamide] | 65 |
| CN[C@@H](C)C(=O)N[C@H](C(=O)N1Cc2ccc(OCc3ccc(C(=O)N[C@H]4C[C@@H](C(=O)NC5CCCc6ccccc65)N(C(=O)[C@@H](NC(=O)[C@H](C)NC)C(C)(C)C)C4)cc3)cc2C[C@@H]1C(=O)NC1CCCc2ccccc21)C(C)(C)C (stereo partly drawn) [Example 42, (R)-2-((S)-3,3-Dimethyl-2-((S)-2-(methylamino)propanamido)butanoyl)-6-((4-(((3S,5S)-1-((S)-3,3-dimethyl-2-((5)-2-(methylamino)propanamido)butanoyl)-5-(((R)-1,2,3,4-tetrahydronaphthalen-1-yl)carbamoyl)pyrrolidin-3-yl)carbamoyl)benzyl)oxy)-N-((R)-1,2,3,4-tetrahydronaphthalen-1-yl)-1,2,3,4-tetrahydroisoquinoline-3-carboxamide] | 240 |
| CC[C@H](NC)C(=O)N[C@H](C(=O)N1Cc2cc(OCc3ccc(C(=O)N[C@H]4C[C@@H](C(=O)N[C@@H]5CCCc6ccccc65)N(C(=O)[C@@H](NC(=O)[C@H](C)NC)C(C)(C)C)C4)cc3)ccc2C[C@H]1C(=O)N[C@@H]1CCCc2ccccc21)C(C)(C)C [Example 43] | 130 |
| CN[C@@H](C)C(=O)N[C@H](C(=O)N1Cc2cc(OC(=O)c3ccc(C(=O)N[C@H]4C[C@@H](C(=O)N[C@@H]5CCCc6ccccc65)N(C(=O)[C@@H](NC(=O)[C@H](C)NC)C(C)(C)C)C4)cc3)ccc2C[C@H]1C(=O)N[C@@H]1CCCc2ccccc21)C(C)(C)C [Example 46, (S)-2-((S)-3,3-Dimethyl-2-((S)-2-(methylamino)propanamido)butanoyl)-3-(((R)-1,2,3,4-tetrahydronaphthalen-1-yl)carbamoyl)-1,2,3,4-tetrahydroisoquinolin-7-yl 4-(((3S,5S)-1-((S)-3,3-dimethyl-2-((S)-2-(methylamino)propanamido)butanoyl)-5-(((R)-1,2,3,4-tetrahydronaphthalen-1-yl)carbamoyl)pyrrolidin-3-yl)carbamoyl)benzoate] | 69 |
| CN[C@@H](C)C(=O)N[C@H](C(=O)N1Cc2cc(NC(=O)c3ccc(CO[C@H]4C[C@@H](C(=O)N[C@@H]5CCCc6ccccc65)N(C(=O)[C@@H](NC(=O)[C@H](C)NC)C(C)(C)C)C4)cc3)ccc2C[C@H]1C(=O)N[C@@H]1CCCc2ccccc21)C(C)(C)C [Example 47, (S)-2-((S)-3,3-Dimethyl-2-((S)-2-(methylamino)propanamido)butanoyl)-7-(4-((((3S,5S)-1-((S)-3,3-dimethyl-2-((S)-2-(methylamino)propanamido)butanoyl)-5-(((R)-1,2,3,4-tetrahydronaphthalen-1-yl)carbamoyl)pyrrolidin-3-yl)oxy)methyl)benzamido)-N—((R)-1,2,3,4-tetrahydronaphthalen-1-yl)-1,2,3,4-tetrahydroisoquinoline-3-carboxamide] | 67 |
| CN[C@@H](C)C(=O)N[C@H](C(=O)N1Cc2cc(OC(=O)c3ccc(CO[C@H]4C[C@@H](C(=O)N[C@@H]5CCCc6ccccc65)N(C(=O)[C@@H](NC(=O)[C@H](C)NC)C(C)(C)C)C4)cc3)ccc2C[C@H]1C(=O)N[C@@H]1CCCc2ccccc21)C(C)(C)C [Example 48, (S)-2-((S)-3,3-Dimethyl-2-((S)-2-(methylamino)propanamido)butanoyl)-3-(((R)-1,2,3,4-tetrahydronaphthalen-1-yl)carbamoyl)-1,2,3,4-tetrahydroisoquinolin-7-yl 4-((((3S,5S)-1-((S)-3,3-dimethyl-2-((S)-2-(methylamino)propanamido)butanoyl)-5-(((R)-1,2,3,4-tetrahydronaphthalen-1-yl)carbamoyl)pyrrolidin-3-yl)oxy)methyl)benzoate] | 92 |
| CN[C@@H](C)C(=O)N[C@H](C(=O)N1Cc2cc(NC(=O)c3ccc(CO[C@H]4C[C@@H](C(=O)N[C@@H]5CCCc6ccccc65)N(C(=O)[C@@H](NC(=O)[C@H](C)NC)C(C)(C)C)C4)cc3)ccc2C[C@H]1C(=O)N[C@H](C)c1ccccc1F)C(C)(C)C [Example 50, (S)-2-((S)-3,3-Dimethyl-2-((S)-2-(methylamino)propanamido)butanoyl)-7-(4-((((3S,5S)-1-((S)-3,3-dimethyl-2-((S)-2-(methylamino)propanamido)butanoyl)-5-(((R)-1,2,3,4-tetrahydronaphthalen-1-yl)carbamoyl)pyrrolidin-3-yl)oxy)methyl)benzamido)-N-((R)-1-(2-fluorophenyl)ethyl)-1,2,3,4-tetrahydroisoquinoline-3-carboxamide] | 53 |
| CN[C@@H](C)C(=O)N[C@H](C(=O)N1Cc2cc(NC(=O)c3cccc(CO[C@H]4C[C@@H](C(=O)N[C@@H]5CCCc6ccccc65)N(C(=O)[C@@H](NC(=O)[C@H](C)NC)C(C)(C)C)C4)c3)ccc2C[C@H]1C(=O)N[C@@H]1CCCc2ccccc21)C(C)(C)C [Example 52, (S)-2-((S)-3,3-Dimethyl-2-((S)-2-(methylamino)propanamido)butanoyl)-7-(3-((((3S,5S)-1-((S)-3,3-dimethyl-2-((S)-2-(methylamino)propanamido)butanoyl)-5-(((R)-1,2,3,4-tetrahydronaphthalen-1-yl)carbamoyl)pyrrolidin-3-yl)oxy)methyl)benzamido)-N-((R)-1,2,3,4-tetrahydronaphthalen-1-yl)-1,2,3,4-tetrahydroisoquinoline-3-carboxamide] | 42 |
